The source of these data is US9481676B2, “Azepino[4,5-B]indoles and methods of use” (Medivation Technologies, Inc., priority 2008, dated 2016).

Experiment [1] concerns cells treated with the cell toxin ionomycin. Conditions: cited from earlier work.
The test system of experiment [2] is neurite outgrowth and neurogenesis. The note with it: cited from earlier work.
In another experiment the test system is brain cells (neurons). Conditions: preclinical models of Alzheimer's disease and Huntington's disease; cited from earlier work.
Experiment [3] has as its target T1, human recombinant serotonin (5-Hydroxytryptamine) 5-HT2C receptor (Homo sapiens, UniProt P28335).
T1 construct: expressed in transfected cells; host or cells: CHO-K1 cells
T1 sequence (P28335 33-458): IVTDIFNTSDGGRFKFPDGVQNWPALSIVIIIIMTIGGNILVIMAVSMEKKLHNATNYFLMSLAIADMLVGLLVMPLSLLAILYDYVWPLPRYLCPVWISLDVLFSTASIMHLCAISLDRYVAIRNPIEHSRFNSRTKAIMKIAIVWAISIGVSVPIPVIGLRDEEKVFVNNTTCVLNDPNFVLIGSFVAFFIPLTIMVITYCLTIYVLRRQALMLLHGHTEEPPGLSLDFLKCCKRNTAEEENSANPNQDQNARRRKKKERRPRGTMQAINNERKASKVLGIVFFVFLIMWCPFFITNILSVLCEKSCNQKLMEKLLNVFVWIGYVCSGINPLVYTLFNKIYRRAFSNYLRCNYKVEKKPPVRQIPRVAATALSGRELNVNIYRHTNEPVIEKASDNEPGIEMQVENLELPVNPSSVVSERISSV
Kind of experiment: Serotonin 5-HT2C radioligand binding ([3H]Mesulergine). The note with it: compound at 1 μM; read-out: Serotonin (1 μM) 5-HT2C, percent inhibition of specific binding. The protocol: To evaluate in radioligand binding assays the activity of compounds of the invention, human recombinant serotonin (5-Hydroxytryptamine) 5-HT2C receptor expressed in Chinese hamster ovary (CHO-K1) cells (Wolf, W. A. and Schutz, J. S., J. Neurochem. 69:1449, 1997) in a modified Tris-HCl buffer (50 mM Tris-HCl, pH 7.4, 0.1% Ascorbic Acid, 10 μM Pargyline) was used. Compounds of the invention were incubated with 1 nM [^3H]Mesulergine for 60 min. at 25° C. Non-specific binding was estimated in the presence of 1 μM Mianserin. Receptor proteins were filtered and washed, the filters were then counted to determine [^3H]Mesulergine specifically bound. Compounds were screened at 1 μM or lower, using 1% DMSO as vehicle. Biochemical assay results are presented as the percent inhibition of specific binding in Table 6.

In experiment [4] the target is T2, human recombinant serotonin (5-Hydroxytryptamine) 5-HT2A receptor (Homo sapiens, UniProt P28223).
T2 construct: expressed in transfected cells; host or cells: CHO-K1 cells
T2 sequence (P28223 whole entry): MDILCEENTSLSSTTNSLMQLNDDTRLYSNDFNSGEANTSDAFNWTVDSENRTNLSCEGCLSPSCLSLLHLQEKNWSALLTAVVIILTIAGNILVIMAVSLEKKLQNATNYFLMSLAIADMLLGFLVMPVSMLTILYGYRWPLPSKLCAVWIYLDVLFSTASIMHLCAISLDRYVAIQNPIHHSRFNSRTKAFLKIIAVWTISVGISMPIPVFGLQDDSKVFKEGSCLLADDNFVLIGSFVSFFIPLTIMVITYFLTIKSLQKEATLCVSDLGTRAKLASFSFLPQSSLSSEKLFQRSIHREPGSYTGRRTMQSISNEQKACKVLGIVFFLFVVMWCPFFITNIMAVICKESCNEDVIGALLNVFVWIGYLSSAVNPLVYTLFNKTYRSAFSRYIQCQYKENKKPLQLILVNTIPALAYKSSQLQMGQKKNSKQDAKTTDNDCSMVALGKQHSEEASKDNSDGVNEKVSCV
The experiment is described as follows: Serotonin 5-HT2A radioligand binding ([3H]Ketanserin). The note with it: compound at 1 μM; read-out: Serotonin (1 μM) 5-HT2A, percent inhibition of specific binding. On the procedure: To evaluate in radioligand binding assays the activity of compounds of the invention, human recombinant serotonin (5-Hydroxytryptamine) 5-HT2A receptor expressed in Chinese hamster ovary (CHO-K1) cells (Bonhaus, D. W. et al. Br. J. Pharmacol. 115:622, 1995; Saucier, C. and Albert, P. R., J. Neurochem. 68:1998, 1997) in a 50 mM Tris-HCl buffer, pH 7.4, was used. Compounds of the invention were incubated with 0.5 nM [^3H]Ketanserin for 60 min. at 25° C. Non-specific binding was estimated in the presence of 1 μM Mianserin. Receptor proteins were filtered and washed, the filters were then counted to determine [^3H]Ketanserin specifically bound. Compounds were screened at 1 μM or lower, using 1% DMSO as vehicle. Biochemical assay results are presented as the percent inhibition of specific binding in Table 6.

Experiment [5] concerns the target T3, human recombinant histamine H2 receptor (Homo sapiens, UniProt P25021).
T3 construct: expressed in transfected cells; host or cells: CHO-K1 cells
Kind of experiment: Histamine H2 radioligand binding ([125I]Aminopotentidine). Conditions: compound at 1 μM; read-out: Histamine Binding (1 μM) H2, percent inhibition of specific binding. On the procedure:
To evaluate in radioligand binding assays the activity of compounds of the invention, human recombinant histamine H2 receptor expressed in Chinese hamster ovary (CHO) K1 cells (Ruat, M., Proc. Natl. Acad. Sci. USA. 87(5):1658, 1990) in a 50 mM Phosphate buffer, pH 7.4 was used. Compounds of the invention were incubated with 0.1 nM [^125I]Aminopotentidine for 120 min. at 25° C. Non-specific binding was estimated in the presence of 3 μM Tiotidine. Receptor proteins were filtered and washed, the filters were then counted to determine [^125I]Aminopotentidine specifically bound. Compounds were screened at 1 μM or lower, using 1% DMSO as vehicle. Biochemical assay results are presented as the percent inhibition of specific binding in Table 6.

Experiment [6] deals with T4, human recombinant histamine H1 receptor (Homo sapiens, UniProt P35367).
T4 construct: expressed in transfected cells; host or cells: CHO cells
T4 sequence (P35367 whole entry): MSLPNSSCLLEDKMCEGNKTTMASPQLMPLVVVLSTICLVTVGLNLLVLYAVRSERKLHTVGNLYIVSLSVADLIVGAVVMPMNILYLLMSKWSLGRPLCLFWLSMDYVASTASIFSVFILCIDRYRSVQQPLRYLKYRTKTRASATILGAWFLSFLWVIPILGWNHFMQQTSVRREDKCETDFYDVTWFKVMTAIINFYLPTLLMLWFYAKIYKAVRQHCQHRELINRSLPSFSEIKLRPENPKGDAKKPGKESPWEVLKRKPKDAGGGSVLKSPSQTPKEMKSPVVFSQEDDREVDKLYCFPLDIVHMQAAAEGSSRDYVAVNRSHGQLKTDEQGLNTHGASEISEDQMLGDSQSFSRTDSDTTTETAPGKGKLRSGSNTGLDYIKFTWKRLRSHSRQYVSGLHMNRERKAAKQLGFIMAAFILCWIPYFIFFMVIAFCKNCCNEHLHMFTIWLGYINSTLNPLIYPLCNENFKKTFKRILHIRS
The experiment is described as follows: Histamine H1 radioligand binding ([3H]Pyrilamine). Conditions: compound at 1 μM; read-out: Histamine Binding (1 μM) H1, percent inhibition of specific binding. On the procedure: To evaluate in radioligand binding assays the activity of compounds of the invention, human recombinant histamine H1 receptor expressed in Chinese hamster ovary (CHO) cells (De Backer, M. D. et al., Biochem. Biophys. Res. Comm. 197(3):1601, 1993) in a modified Tris-HCl buffer (50 mM Tris-HCl, pH 7.4, 2 mM MgCl2, 100 mM NaCl, 250 mM Sucrose) was used. Compounds of the invention were incubated with 1.2 nM [^3H]Pyrilamine for 180 min. at 25° C. Non-specific binding was estimated in the presence of 1 μM pyrilamine. Receptor proteins were filtered and washed, the filters were then counted to determine [^3H]Pyrilamine specifically bound. Compounds were screened at 1 μM or lower, using 1% DMSO as vehicle. Biochemical assay results are presented as the percent inhibition of specific binding in Table 6.

The target in experiment [7] is T5, human recombinant serotonin (5-Hydroxytryptamine) 5-HT6 receptor (Homo sapiens, UniProt P50406).
T5 construct: expressed in transfected cells; host or cells: human HeLa cells
T5 sequence (P50406 whole entry): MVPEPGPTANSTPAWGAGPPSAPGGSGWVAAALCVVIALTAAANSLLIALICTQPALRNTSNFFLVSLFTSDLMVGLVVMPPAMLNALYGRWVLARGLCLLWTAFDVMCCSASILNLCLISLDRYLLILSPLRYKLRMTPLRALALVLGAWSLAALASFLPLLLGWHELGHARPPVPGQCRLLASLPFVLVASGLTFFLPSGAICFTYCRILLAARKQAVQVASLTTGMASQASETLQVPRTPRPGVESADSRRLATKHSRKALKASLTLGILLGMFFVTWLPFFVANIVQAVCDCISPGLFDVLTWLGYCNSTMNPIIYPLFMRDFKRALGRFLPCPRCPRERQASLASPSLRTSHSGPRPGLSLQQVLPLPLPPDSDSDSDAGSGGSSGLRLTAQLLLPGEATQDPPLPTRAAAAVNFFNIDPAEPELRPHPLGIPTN
The experiment is described as follows: Serotonin 5-HT6 radioligand binding ([3H]LSD). Conditions: compound at 1 μM; read-out: Serotonin (1 μM) 5-HT6, percent inhibition of specific binding. On the procedure:
To evaluate in radioligand binding assays the activity of compounds of the invention, human recombinant serotonin (5-Hydroxytryptamine) 5-HT6 receptor expressed in human HeLa cells (Monsma, F. J. Jr. et al., Mol. Pharmacol. 43:320, 1993) in a modified Tris-HCl buffer (50 mM Tris-HCl, pH 7.4, 150 mM NaCl, 2 mM Ascorbic Acid, 0.001% BSA) was used. Compounds of the invention were incubated with 1.5 nM [3H]Lysergic acid diethylamide (LSD) for 120 min. at 37° C. Non-specific binding was estimated in the presence of 5 μM Serotonin (5-HT). Receptor proteins were filtered and washed, the filters were then counted to determine [3H]LSD specifically bound. Compounds were screened at 1 μM or lower, using 1% DMSO as vehicle. Biochemical assay results are presented as the percent inhibition of specific binding in Table 6.

For experiment [8], the target named is T6, human recombinant dopamine D2L receptor (Homo sapiens, UniProt P14416).
T6 construct: expressed in transfected cells; host or cells: CHO cells
T6 sequence (P14416 whole entry): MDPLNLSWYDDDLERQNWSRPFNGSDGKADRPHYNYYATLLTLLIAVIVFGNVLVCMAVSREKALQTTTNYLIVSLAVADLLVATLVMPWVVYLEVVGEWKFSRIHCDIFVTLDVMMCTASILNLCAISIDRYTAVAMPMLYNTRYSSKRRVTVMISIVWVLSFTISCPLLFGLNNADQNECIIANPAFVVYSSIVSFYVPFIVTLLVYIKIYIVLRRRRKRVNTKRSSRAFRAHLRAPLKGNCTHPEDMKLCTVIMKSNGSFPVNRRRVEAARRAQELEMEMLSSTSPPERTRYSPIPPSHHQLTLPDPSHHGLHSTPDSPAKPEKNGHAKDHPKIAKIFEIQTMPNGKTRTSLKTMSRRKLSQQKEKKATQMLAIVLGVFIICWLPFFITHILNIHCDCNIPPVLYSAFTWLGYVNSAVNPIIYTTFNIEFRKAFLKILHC
The experiment is described as follows: Dopamine D2L radioligand binding ([3H]Spiperone). The note with it: compound at 1 μM; read-out: Dopamine (1 μM) D2L, percent inhibition of specific binding. The protocol:
To evaluate in radioligand binding assays the activity of compounds of the invention, human recombinant dopamine D2L receptor expressed in Chinese hamster ovary (CHO) cells (Grandy, D. K. et al. Proc. Natl. Acad. Sci. USA. 86:9762, 1989; Hayes, G. et al., Mol. Endocrinol. 6:920, 1992) in a modified Tris-HCl buffer (50 mM Tris-HCl, pH 7.4, 1.4 mM Ascorbic Acid, 0.001% BSA, 150 mM NaCl) was used. Compounds of the invention were incubated with 0.16 nM [^3H]Spiperone for 120 min. at 25° C. Non-specific binding was estimated in the presence of 10 μM Haloperidol. Receptor proteins were filtered and washed, the filters were then counted to determine [^3H]Spiperone specifically bound. Compounds were screened at 1 μM or lower, using 1% DMSO as vehicle. Biochemical assay results are presented as the percent inhibition of specific binding in Table 5.

Setting [9] is: after treatment with the cell toxin ionomycin.

T3 sequence (P25021 whole entry): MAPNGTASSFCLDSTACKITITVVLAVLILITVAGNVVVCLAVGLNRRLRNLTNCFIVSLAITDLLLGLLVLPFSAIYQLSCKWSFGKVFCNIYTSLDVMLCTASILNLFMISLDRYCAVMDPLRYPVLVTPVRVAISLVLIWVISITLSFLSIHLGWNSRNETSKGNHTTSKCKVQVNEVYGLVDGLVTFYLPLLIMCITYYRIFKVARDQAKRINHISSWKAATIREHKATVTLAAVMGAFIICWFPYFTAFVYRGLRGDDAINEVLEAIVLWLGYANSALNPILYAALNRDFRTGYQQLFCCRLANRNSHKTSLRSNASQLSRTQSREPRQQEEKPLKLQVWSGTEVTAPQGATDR

For the molecule `Cc1ccc2c(c1)c1c(n2CCc2ccc(C)nc2)CCN(C)C1` [Dimebon, dimebon], in [1] (setting [9]), the mitochondrial function entry was “improved mitochondrial function” and the “number of surviving cells” value is “increased the number of surviving cells”. Also, in experiment [1] (setting of cellular stress), the “mitochondrial function of cells” value is “improve the mitochondrial function of cells in the setting of cellular stress with very high potency”. In addition, the “neurite outgrowth and neurogenesis” value in experiment [2] is “promote neurite outgrowth and neurogenesis”. In addition, the “death of brain cells (neurons)” value with brain cells (neurons) is “inhibit the death of brain cells (neurons)”.

Take `C/C(=C\n1c2c(c3cc(C)ccc31)CCN(C)CC2)c1ccccc1F` [Compound No. 241, (E)-6-(2-(2-fluorophenyl)prop-1-enyl)-3,9-dimethyl-1,2,3,4,5,6-hexahydroazepino[4,5-b]indole]: the inhibition at 1 µM in [3] turned out to be 97%; in [4], 100%; in experiment [5], 93%; in experiment [6], 98%; in experiment [7] it was 100%; in experiment [8], 37%.

Take `C/C(=C\n1c2c(c3cc(Cl)ccc31)CCN(C)CC2)c1ccccc1Cl` [Compound No. 245, (E)-9-chloro-6-(2-(2-chlorophenyl)prop-1-enyl)-3-methyl-1,2,3,4,5,6-hexahydroazepino[4,5-b]indole]: the inhibition at 1 µM was determined as 99% in experiment [3]; 99% in experiment [4]; 88% in experiment [5]; 96% in experiment [6]; 97% in experiment [7]; 16% in experiment [8].

`COc1ccc(/C(C)=C/n2c3c(c4cc(Cl)ccc42)CCN(C)CC3)cc1` [Compound No. 160, (E)-9-chloro-1,2,3,4,5,6-hexahydro-6-(2-(4-methoxyphenyl)prop-1-enyl)-3-methylazepino[4,5-b]indole]: the inhibition at 1 µM in experiment [3] was found to be 103%; in experiment [4], 94%; in experiment [5] it was 91%; in experiment [6], 87%; in experiment [7] it was 99%; in experiment [8], 17%.

With `C/C(=C/n1c2c(c3cc(Cl)ccc31)CCN(C)CC2)c1ccccc1F` [Compound No. 242, (Z)-9-chloro-6-(2-(2-fluorophenyl)prop-1-enyl)-3-methyl-1,2,3,4,5,6-hexahydroazepino[4,5-b]indole], the inhibition at 1 µM in experiment [3] is 94%; in [4] it was 99%; in [5], 98%; in experiment [6] it was 100%; in [7] it was 102%; in experiment [8], 69%.
